Columns and labels:
[1] = test system: opiate receptors; conditions: cited from earlier work
[2] = test system: emesis (retching and vomiting); experiment: emesis caused by opioid (morphine) and other proemetic agents (cisplatin) in ferrets; assay type: in vivo; conditions: i.p. pre-dosing, morphine 0.125 mg/kg s.c. or cisplatin 5 mg/kg i.p.
Description: Male ferrets (0.9- 1.7 kg) obtained from Leeds University were housed in pairs at 22±1° C. and had free access to food (SDS Diet ‘C’ (E), Special Diet Services, UK) and water. They were housed under artificial lighting with lights on between 07:00 and 21:00 hours. For experimental use, animals were removed from their holding cages and placed individually into observation cages. The animals were allowed free access to water and food. The animals were divided into separate groups of 4 animals per group. Animals were frequently observed throughout the experiments by a trained technician to ensure that the animals remained in good health. In addition, animal behaviour was video recorded for subsequent analysis of emesis (see Rudd et al., 1994). Emesis was characterized by rhythmic abdominal contractions which were either associated with the oral expulsion of solid or liquid material from the gastrointestinal tract (i.e. vomiting) or not associated with the passage of material (i.e. retching movements). The number of highly distinctive abdominal contractions was counted. (+)-Nefopam was dissolved in saline and administered in a volume of 1 ml/kg. […] Observations were recorded over a 4 hr period post-morphine dosing and scored for incidences of retching and vomiting. […] Observations were recorded over the 72 hr period post-cisplatin dosing and scored for incidences of retching and vomiting.

[3] = test system: norepinephrine uptake; conditions: order of potency (+)-nefopam > (±)-nefopam > (−)-nefopam; cited from earlier work
[4] = order of potency (+)-nefopam > (±)-nefopam > (−)-nefopam; cited from earlier work
[5] = test system: serotonin-uptake; conditions: order of potency (+)-nefopam > (±)-nefopam > (−)-nefopam; cited from earlier work
[6] = test system: dopamine uptake; conditions: order of potency (+)-nefopam > (±)-nefopam > (−)-nefopam; cited from earlier work

SMILES	antinociception in animal models of pain and in humans ([1]; animal models of pain and humans)	blockade of antinociception by nalaxone ([1]; nalaxone)	effect on emesis caused by opioid and other recognised proemetic agents [2]	norepinephrine uptake inhibitory properties, potency compared with (−)-nefopam [3]	analgesic properties, potency compared with (−)-nefopam [4]	serotonin-uptake inhibitory properties, potency compared with (−)-nefopam [5]	dopamine uptake inhibitory properties, potency compared with (−)-nefopam [6]
CN1CCOC(c2ccccc2)c2ccccc2C1 (racemic) [nefopam]	induce antinociception	not blocked	able to prevent or diminish emesis				
CN1CCO[C@@H](c2ccccc2)c2ccccc2C1 [(+)-nefopam]				more potent	more potent	more potent	more potent

— patent publication US20060063753A1 (priority 2002, published 2006)
